Measured values from PubChem BioAssay AID328 (DTP/NCI, 2004).
Several values for one entry are separate records, joined by “and”; a condition that tells them apart may be missing. Equal values may be shown once. Inconclusive results and toxic doses are left out.

Test system: BDF1 mice, P388 leukemia ip, median survival T/C
Test: NCI In Vivo Anticancer Drug Screen. Data for tumor model P388 Leukemia (intraperitoneal) in B6D2F1 (BDF1) mice
Conditions: endpoint: median survival time, higher = longer survival
In short: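 Compound-treated tumour-bearing mice were compared with vehicle-treated controls. Survival was recorded, and the value is the treated-group measurement divided by the control-group measurement (T/C).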

[1] = dose: 100.0 mg/kg/injection, schedule: Q04DX003 (ip), vehicle: Klucel (hydroxypropylcellulose) (HPC)
[2] = dose: 200.0 mg/kg/injection, schedule: Q04DX003 (ip), vehicle: Klucel (hydroxypropylcellulose) (HPC)
[3] = dose: 400.0 mg/kg/injection, schedule: Q04DX003 (ip), vehicle: Klucel (hydroxypropylcellulose) (HPC)
[4] = dose: 100.0 mg/kg/injection, schedule: Q01DX009 (ip), vehicle: Klucel (hydroxypropylcellulose) (HPC)
[5] = dose: 200.0 mg/kg/injection, schedule: Q01DX009 (ip), vehicle: Klucel (hydroxypropylcellulose) (HPC)
[6] = dose: 400.0 mg/kg/injection, schedule: Q01DX009 (ip), vehicle: Klucel (hydroxypropylcellulose) (HPC)
[7] = dose: 100.0 mg/kg/injection, schedule: Q04DX003 (ip), vehicle: saline with Tween-80
[8] = dose: 200.0 mg/kg/injection, schedule: Q04DX003 (ip), vehicle: saline with Tween-80
[9] = dose: 400.0 mg/kg/injection, schedule: Q04DX003 (ip), vehicle: saline with Tween-80
[10] = dose: 100.0 mg/kg/injection, schedule: Q04DX003 (ip), vehicle: saline
[11] = dose: 200.0 mg/kg/injection, schedule: Q04DX003 (ip), vehicle: saline
[12] = dose: 50.0 mg/kg/injection, schedule: Q01DX009 (ip), vehicle: saline with Tween-80
[13] = dose: 100.0 mg/kg/injection, schedule: Q01DX009 (ip), vehicle: saline with Tween-80
[14] = dose: 200.0 mg/kg/injection, schedule: Q01DX009 (ip), vehicle: saline with Tween-80
[15] = dose: 400.0 mg/kg/injection, schedule: Q01DX009 (ip), vehicle: saline with Tween-80
[16] = dose: 50.0 mg/kg/injection, schedule: Q01DX005 (ip), vehicle: saline with Tween-80

In the case of `O=c1oc2c(CN3CCCC3)c(O)ccc2c2c1CCCC2`, the T/C (dose: 1.0 mg/kg/injection, schedule: Q01DX009 (ip), vehicle: Klucel (hydroxypropylcellulose) (HPC)) is reported as 98 % of control, the T/C (dose: 2.0 mg/kg/injection, schedule: Q01DX009 (ip), vehicle: Klucel (hydroxypropylcellulose) (HPC)) is reported as 109 % of control and the T/C (dose: 4.0 mg/kg/injection, schedule: Q01DX009 (ip), vehicle: Klucel (hydroxypropylcellulose) (HPC)) is reported as 104 % of control. The T/C (dose: 8.0 mg/kg/injection, schedule: Q01DX009 (ip), vehicle: Klucel (hydroxypropylcellulose) (HPC)) was 109 % of control, the T/C (dose: 16.0 mg/kg/injection, schedule: Q01DX009 (ip), vehicle: Klucel (hydroxypropylcellulose) (HPC)) was 98 % of control and the T/C (dose: 32.0 mg/kg/injection, schedule: Q01DX009 (ip), vehicle: Klucel (hydroxypropylcellulose) (HPC)) was 99 % of control.
`COC(=O)c1cc(Cl)ccc1OCC(=O)Nc1ccc([N+](=O)[O-])cc1` was tested, and the T/C [1] was 95 % of control and 100 % of control, the T/C [2] was 104 % of control and the T/C [3] was 87 % of control and 104 % of control.
`CCC[As](=O)(O)CCC` was tested, and the T/C (dose: 12.5 mg/kg/injection, schedule: Q01DX009 (ip), vehicle: saline) was 115 % of control, the T/C (dose: 25.0 mg/kg/injection, schedule: Q01DX009 (ip), vehicle: saline) was 110 % of control and the T/C (dose: 33.0 mg/kg/injection, schedule: Q01DX009 (ip), vehicle: saline) was 100 % of control. For the same compound, the T/C (dose: 75.0 mg/kg/injection, schedule: Q01DX009 (ip), vehicle: saline) was 120 % of control.
With `NC(=O)Nc1nc(-c2ccccc2)no1` the T/C [4] was 95 % of control, the T/C [1] was 100 % of control and the T/C [5] was 100 % of control. For the same compound, the T/C [2] was 109 % of control, the T/C [6] was 90 % of control and the T/C [3] was 100 % of control.
`CC1CC(C)(C)N=C(C(C)CC(C)(C)C)O1` (stereo unspecified) was tested, and the T/C (dose: 50.0 mg/kg/injection, schedule: Q04DX003 (ip), vehicle: saline sonified) was 90 % of control, the T/C (dose: 100.0 mg/kg/injection, schedule: Q04DX003 (ip), vehicle: saline sonified) was 100 % of control and the T/C (dose: 200.0 mg/kg/injection, schedule: Q04DX003 (ip), vehicle: saline sonified) was 100 % of control.
For `Cc1cccnc1NS(=O)(=O)c1ccccc1`, the T/C [7] was 100 % of control, the T/C [8] was 104 % of control and the T/C [9] was 108 % of control.
For `S=c1cc(-c2ccccc2)ss1`, the T/C [7] was 110 % of control and 101 % of control, the T/C [8] was 115 % of control and 101 % of control and the T/C [9] was 108 % of control.
In the case of `CCN(CC)c1ccc(C(=C(c2ccc(N(CC)CC)cc2)c2ccc(N(CC)CC)cc2)c2ccc(N(CC)CC)cc2)cc1`, the T/C (dose: 50.0 mg/kg/injection, schedule: Q04DX003 (ip), vehicle: Klucel (hydroxypropylcellulose) (HPC)) is reported as 100 % of control, the T/C [1] is reported as 104 % of control and the T/C [2] is reported as 90 % of control.
`CCOC1CC2c3ccccc3C1c1cccc[n+]12` (stereo unspecified) was tested, and the T/C (dose: 9.37 mg/kg/injection, schedule: Q01DX009 (ip), vehicle: saline) was 108 % of control, the T/C (dose: 18.75 mg/kg/injection, schedule: Q01DX009 (ip), vehicle: saline) was 108 % of control and the T/C (dose: 37.5 mg/kg/injection, schedule: Q01DX009 (ip), vehicle: saline) was 91 % of control.
With `CC(CS(=O)(=O)O)N1CCN(CCO)CC1` (stereo unspecified) the T/C [10] was 95 % of control, the T/C [11] was 100 % of control and the T/C (dose: 400.0 mg/kg/injection, schedule: Q04DX003 (ip), vehicle: saline) was 100 % of control.
`COC(=O)C1OC1c1ccccc1` (stereo unspecified) was tested, and the T/C [4] was 100 % of control, the T/C [1] was 95 % of control and the T/C [5] was 100 % of control. The T/C [2] was 95 % of control, the T/C [6] was 100 % of control and the T/C [3] was 95 % of control.
`COc1cccc(/C=N/NC(=S)NC2CC3CCC2C3)c1O` (stereo unspecified) was tested, and the T/C [12] was 100 % of control, the T/C [13] was 95 % of control and the T/C [14] was 103 % of control.
In the case of `Cc1ccc(C2(C#N)CC2)cc1`, the T/C [13] is reported as 108 % of control, the T/C [7] is reported as 100 % of control and the T/C [14] is reported as 112 % of control. The T/C [8] was 108 % of control, the T/C [15] was 116 % of control and the T/C [9] was 116 % of control.
`[Fe+5].[O-][Cl+3]([O-])([O-])O.[O-]c1ccccc1C=NCCN1CC1.[O-]c1ccccc1C=NCCN1CC1` was tested, and the T/C [7] was 100 % of control and 120 % of control and the T/C [8] was 116 % of control.
For `ClCCOCCCl`, the T/C [12] was 115 % of control and the T/C [13] was 124 % of control.
In the case of `COc1cccc(/C(C)=N\Nc2ccc([N+](=O)[O-])cc2[N+](=O)[O-])c1OC`, the T/C [12] is reported as 94 % of control, the T/C (dose: 50.0 mg/kg/injection, schedule: Q04DX003 (ip), vehicle: saline with Tween-80) is reported as 100 % of control and the T/C [13] is reported as 100 % of control. The T/C [7] was 102 % of control, the T/C [14] was 91 % of control and the T/C [8] was 102 % of control. The T/C [15] was 94 % of control and the T/C [9] was 97 % of control.
With `C/C=C/C=C/NC(=O)Oc1ccccc1` the T/C [7] was 91 % of control, the T/C [8] was 94 % of control and the T/C [9] was 116 % of control.
`Cc1cc(Sc2ccc(Cl)cc2)nc(Sc2ccc(Cl)cc2)c1C#N` was tested, and the T/C [16] was 94 % of control, the T/C (dose: 100.0 mg/kg/injection, schedule: Q01DX005 (ip), vehicle: saline with Tween-80) was 88 % of control and the T/C (dose: 200.0 mg/kg/injection, schedule: Q01DX005 (ip), vehicle: saline with Tween-80) was 91 % of control.
With `C1=C(c2ccccc2)OC(c2ccccc2)C1c1ccccc1` (stereo unspecified) the T/C (dose: 25.0 mg/kg/injection, schedule: Q01DX005 (ip), vehicle: saline with Tween-80) was 94 % of control and the T/C [16] was 94 % of control.
For `O=P(N1CCCC1)(N1CC1)N1CC1`, the T/C (dose: 0.74 mg/kg/injection, schedule: Q01DX009 (ip), vehicle: saline) was 89 % of control, the T/C (dose: 1.11 mg/kg/injection, schedule: Q01DX009 (ip), vehicle: saline) was 98 % of control and the T/C (dose: 1.67 mg/kg/injection, schedule: Q01DX009 (ip), vehicle: saline) was 121 % of control. The T/C (dose: 2.2 mg/kg/injection, schedule: Q01DX009 (ip), vehicle: saline) was 205 % of control, the T/C (dose: 2.2 mg/kg/injection, schedule: Q04DX003 (ip), vehicle: saline) was 113 % of control and the T/C (dose: 2.5 mg/kg/injection, schedule: Q01DX009 (ip), vehicle: saline) was 180 % of control. For the same compound, the T/C (dose: 3.3 mg/kg/injection, schedule: Q01DX009 (ip), vehicle: saline) was 255 % of control, the T/C (dose: 5.0 mg/kg/injection, schedule: Q01DX009 (ip), vehicle: saline) was 268 % of control and 317 % of control and the T/C (dose: 5.56 mg/kg/injection, schedule: Q04DX003 (ip), vehicle: saline) was 150 % of control. For the same compound, the T/C (dose: 7.5 mg/kg/injection, schedule: Q01DX009 (ip), vehicle: saline) was 112 % of control, the T/C (dose: 7.5 mg/kg/injection, schedule: Q04DX003 (ip), vehicle: saline) was 182 % of control and the T/C (dose: 8.33 mg/kg/injection, schedule: Q04DX003 (ip), vehicle: saline) was 204 % of control. The T/C (dose: 12.5 mg/kg/injection, schedule: Q04DX003 (ip), vehicle: saline) was 240 % of control and 250 % of control and the T/C (dose: 18.7 mg/kg/injection, schedule: Q04DX003 (ip), vehicle: saline) was 272 % of control.
For `COc1ccc(C(=O)CC(C#N)c2ccc3c(c2)OCO3)cc1OC` (stereo unspecified), the T/C [13] was 90 % of control, the T/C [14] was 100 % of control and the T/C [15] was 95 % of control.
For `COc1ccccc1OCC(C)=O`, the T/C (dose: 178.0 mg/kg/injection, schedule: Q04DX003 (ip), vehicle: saline with Tween-80) was 104 % of control, the T/C (dose: 266.0 mg/kg/injection, schedule: Q04DX003 (ip), vehicle: saline with Tween-80) was 104 % of control and the T/C [9] was 114 % of control. For the same compound, the T/C (dose: 600.0 mg/kg/injection, schedule: Q04DX003 (ip), vehicle: saline with Tween-80) was 104 % of control.
For `O=Cc1cn[nH]c1-c1ccccc1`, the T/C [4] was 92 % of control, the T/C [1] was 87 % of control and the T/C [5] was 88 % of control. For the same compound, the T/C [2] was 87 % of control.
With `C[n+]1c(/C=C\C=C\N2CCCCC2)sc2ccccc21` the T/C (dose: 0.16 mg/kg/injection, schedule: Q01DX009 (ip), vehicle: Klucel (hydroxypropylcellulose) (HPC)) was 114 % of control, the T/C (dose: 0.31 mg/kg/injection, schedule: Q01DX009 (ip), vehicle: Klucel (hydroxypropylcellulose) (HPC)) was 108 % of control and the T/C (dose: 0.63 mg/kg/injection, schedule: Q01DX009 (ip), vehicle: Klucel (hydroxypropylcellulose) (HPC)) was 119 % of control.
`CN1CCC=C(C(=O)N(c2ccccc2)c2ccccc2)C1` was tested, and the T/C (dose: 50.0 mg/kg/injection, schedule: Q04DX003 (ip), vehicle: saline) was 95 % of control, the T/C [10] was 100 % of control and the T/C [11] was 100 % of control.
With `OCC(O)C1CCCCN1` (stereo unspecified) the T/C (dose: 50.0 mg/kg/injection, schedule: Q01DX009 (ip), vehicle: saline) was 104 % of control, the T/C (dose: 100.0 mg/kg/injection, schedule: Q01DX009 (ip), vehicle: saline) was 106 % of control and the T/C (dose: 200.0 mg/kg/injection, schedule: Q01DX009 (ip), vehicle: saline) was 104 % of control.
